Patent publication US12673975B2, “Cyclic peptide, cell scaffold material, cell separating material, and medium” (FUJIFILM Corporation, priority 2019, dated 2026)
Read-outs that look alike come from different tables or passages of the source. Starred links: 1 amine or outer side, 2 acyl side, 3 side chain; linkers in the order of their positions; H or OH if unused. Positions of bridges follow the written chain, without caps; N, C: chain ends. Non-standard residues stand in square brackets, D forms with d. Residues, ends and D or L forms follow the SMILES beside them. Pen = CC(C)(S)[C@H](N)C(=O)O; hCys = N[C@@H](CCS)C(=O)O; Dab = NCC[C@H](N)C(=O)O; Dap = NC[C@H](N)C(=O)O; X1 = O=C(C[*:2])[*:1]; X2 = O=C(C[*:1])[*:2]

What was measured:
[1] = molecular target: human integrin αvβ5 (Homo sapiens, UniProt P06756+P18084); test: Evaluation of integrin binding property (surface plasmon resonance, Biacore 3000, immobilized cyclic peptide)
Chain of human integrin αvβ5 (P06756 31-1048): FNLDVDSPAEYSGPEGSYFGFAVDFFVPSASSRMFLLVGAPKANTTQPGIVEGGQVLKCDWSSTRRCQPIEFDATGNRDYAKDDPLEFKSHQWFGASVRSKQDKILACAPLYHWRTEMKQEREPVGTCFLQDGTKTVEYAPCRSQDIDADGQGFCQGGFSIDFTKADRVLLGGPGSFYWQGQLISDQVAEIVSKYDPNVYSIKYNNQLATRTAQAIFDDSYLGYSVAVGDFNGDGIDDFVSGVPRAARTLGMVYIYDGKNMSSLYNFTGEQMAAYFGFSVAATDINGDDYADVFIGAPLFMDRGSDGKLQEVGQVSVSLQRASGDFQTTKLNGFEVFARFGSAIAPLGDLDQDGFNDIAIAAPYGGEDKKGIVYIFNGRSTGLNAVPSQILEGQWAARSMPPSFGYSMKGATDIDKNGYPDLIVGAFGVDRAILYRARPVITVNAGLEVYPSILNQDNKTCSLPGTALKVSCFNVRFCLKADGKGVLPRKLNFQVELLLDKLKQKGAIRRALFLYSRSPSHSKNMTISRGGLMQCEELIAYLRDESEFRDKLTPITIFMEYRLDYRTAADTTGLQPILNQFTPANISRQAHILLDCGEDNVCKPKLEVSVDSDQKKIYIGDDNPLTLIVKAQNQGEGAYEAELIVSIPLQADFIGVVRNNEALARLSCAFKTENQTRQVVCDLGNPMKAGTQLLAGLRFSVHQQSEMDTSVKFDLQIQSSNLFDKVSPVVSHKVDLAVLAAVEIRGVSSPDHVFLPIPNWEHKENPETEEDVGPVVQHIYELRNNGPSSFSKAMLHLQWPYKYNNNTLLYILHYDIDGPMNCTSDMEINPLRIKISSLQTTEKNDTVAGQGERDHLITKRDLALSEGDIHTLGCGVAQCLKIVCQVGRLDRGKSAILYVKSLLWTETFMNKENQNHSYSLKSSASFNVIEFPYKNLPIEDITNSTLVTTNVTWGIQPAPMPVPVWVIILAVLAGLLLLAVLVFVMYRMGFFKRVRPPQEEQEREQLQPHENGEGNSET
Chain of human integrin αvβ5 (P18084 24-799): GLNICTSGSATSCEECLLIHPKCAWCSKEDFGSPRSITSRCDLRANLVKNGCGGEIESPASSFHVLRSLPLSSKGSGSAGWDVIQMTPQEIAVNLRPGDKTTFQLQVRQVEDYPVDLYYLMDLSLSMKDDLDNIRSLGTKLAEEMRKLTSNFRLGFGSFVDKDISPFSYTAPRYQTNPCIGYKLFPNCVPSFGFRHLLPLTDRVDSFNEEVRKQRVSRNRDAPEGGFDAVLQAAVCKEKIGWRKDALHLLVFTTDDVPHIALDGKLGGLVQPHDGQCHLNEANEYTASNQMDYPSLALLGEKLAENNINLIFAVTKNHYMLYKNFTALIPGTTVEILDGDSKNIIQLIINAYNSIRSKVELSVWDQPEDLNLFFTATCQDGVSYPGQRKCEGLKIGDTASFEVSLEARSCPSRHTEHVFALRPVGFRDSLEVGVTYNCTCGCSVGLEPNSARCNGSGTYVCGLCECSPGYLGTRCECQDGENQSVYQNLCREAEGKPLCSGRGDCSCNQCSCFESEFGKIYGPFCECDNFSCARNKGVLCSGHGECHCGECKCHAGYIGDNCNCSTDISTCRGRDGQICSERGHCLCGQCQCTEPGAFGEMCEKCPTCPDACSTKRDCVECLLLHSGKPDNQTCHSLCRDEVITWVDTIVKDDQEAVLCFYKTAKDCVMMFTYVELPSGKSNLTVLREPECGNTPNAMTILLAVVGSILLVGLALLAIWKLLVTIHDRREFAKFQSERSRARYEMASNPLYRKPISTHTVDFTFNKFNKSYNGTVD
Procedure, shortened: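 Human αvβ5 (30-1,000 nM) flowed for 10 min at 25 °C over immobilized cyclic peptide in 20 mM HEPES, 150 mM NaCl, 5 mM MgCl2, pH 7.4, followed by 30 min running buffer and 0.5 M EDTA regeneration. Dissociation constant from peptide minus unimmobilized channel, scored into standard grades.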

[2] = Evaluation of molecule stability (alkali treatment, residual rate by LC/MS); assay type: physicochemical; settings: for Stability (molecule stability, residual rate of the cyclic peptide rank): alkali treatment, residual rate by LC/MS; for Performance evaluation: Stability (residual rate of cyclic peptide after alkali treatment): 500 μM peptide aqueous solution plus equivalent of 1 M sodium hydroxide, 15° C., 3 hours, LC/MS peak area
Procedure, shortened: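 Stability read as percent of summed LC/MS peak area remaining versus untreated peptide (C18, 45 °C, 10 mM ammonium formate pH 3, ESI positive/negative). Treatment: 500 μM peptide in water plus an equivalent of 1 M NaOH, 15 °C for 3 hours.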

[3] = surface plasmon resonance, immobilized cyclic peptide, human integrin αvβ5, read-out: Binding activity (integrin binding property, dissociation constant rank)
[4] = SPR, 25° C., HEPES buffer with 5 mM magnesium chloride, integrin 30-1,000 nM, read-out: Performance evaluation: Binding activity (dissociation constant between the cyclic peptide and human integrin αvβ5)

Row | SMILES | Kd [1, 3] | Stability (molecule stability, residual rate of the cyclic peptide rank) [2] | Kd [1, 4] | Performance evaluation: Stability (residual rate of cyclic peptide after alkali treatment) [2]
1 | C[C@H](NC(=O)[C@@H]1CCNC(=O)CSCC[C@H](NC(=O)[C@H](C)NC(=O)[C@H](CCCCN)NC(=O)[C@H](CCCCN)NC(=O)[C@@H](N)CCCCN)C(=O)N[C@@H]([C@@H](C)O)C(=O)N2CCC[C@H]2C(=O)N[C@@H](CCCNC(=N)N)C(=O)NCC(=O)N[C@@H](CC(=O)O)C(=O)N[C@@H]([C@@H](C)O)C(=O)N[C@@H](Cc2ccccc2)C(=O)N[C@@H](C)C(=O)N1)C(=O)O [Cyclic peptide 160, KKKA-(Hcy)-TPRGDTFA(Dab(acetyl))A] (H-KKKA[hCys]TPRGDTFA[Dab]A-OH; linker 5-14 via X2) | < 50 nM | A (The residual rate of the cyclic peptide is 70% or more.) |  | 
2 | CC[C@H](C)[C@@H]1NC(=O)[C@@H](NC(=O)CNC(=O)[C@H](CCCCN)NC(=O)[C@H](CCCCN)NC(=O)[C@@H](N)CCCCN)CCNC(=O)CSCC[C@@H](C(=O)N[C@@H](C)C(=O)O)NC(=O)[C@H](CCCNC(=N)N)NC(=O)[C@H](Cc2ccccc2)NC(=O)[C@H]([C@@H](C)O)NC(=O)[C@H](CC(=O)O)NC(=O)CNC(=O)[C@H](CCCNC(=N)N)NC(=O)[C@@H]2CCCN2C1=O [Cyclic peptide 118, KKKG(Dab(acetyl))IPRGDTFR-(Hcy)-A] (H-KKKG[Dab]IPRGDTFR[hCys]A-OH; linker 5-14 via X1) | < 50 nM | A (The residual rate of the cyclic peptide is 70% or more.) |  | 
3 | CC[C@H](C)[C@@H]1NC(=O)[C@@H](NC(=O)[C@H](C)NC(=O)[C@H](CCCCN)NC(=O)[C@H](CCCCN)NC(=O)[C@@H](N)CCCCN)CCSCC(=O)NCCCC[C@@H](C(=O)N[C@@H](C)C(=O)O)NC(=O)[C@H](C)NC(=O)[C@H](Cc2ccccc2)NC(=O)[C@H](CO)NC(=O)[C@H](CC(=O)O)NC(=O)CNC(=O)[C@H](CCCNC(=N)N)NC(=O)[C@@H]2CCCN2C1=O [Cyclic peptide 123, KKKA-(Hcy)-IPRGDSFA(Lys(acetyl))A] (H-KKKA[hCys]IPRGDSFAKA-OH; linker 5-14 via X2) | < 50 nM | A (The residual rate of the cyclic peptide is 70% or more.) |  | 
4 | CC[C@H](C)[C@@H]1NC(=O)[C@@H](NC(=O)[C@H](C)NC(=O)[C@H](CCCCN)NC(=O)[C@H](CCCCN)NC(=O)[C@@H](N)CCCCN)CCSCC(=O)NCC[C@@H](C(=O)N[C@@H](C)C(=O)O)NC(=O)[C@H](CO)NC(=O)[C@H](Cc2ccccc2)NC(=O)[C@H]([C@@H](C)O)NC(=O)[C@H](CC(=O)O)NC(=O)CNC(=O)[C@H](CCCNC(=N)N)NC(=O)[C@@H]2CCCN2C1=O [Cyclic peptide 83, KKKA-(Hcy)-IPRGDTFS(Dab(acetyl))A] (H-KKKA[hCys]IPRGDTFS[Dab]A-OH; linker 5-14 via X2) |  |  | < 50 nM | A (The residual rate of the cyclic peptide is 70% or more.)
5 | C[C@H](NC(=O)[C@@H]1CCNC(=O)CSCC[C@H](NC(=O)[C@H](C)NC(=O)[C@H](CCCCN)NC(=O)[C@H](CCCCN)NC(=O)[C@@H](N)CCCCN)C(=O)N[C@@H]([C@@H](C)O)C(=O)N2CCC[C@H]2C(=O)N[C@@H](CCCNC(=N)N)C(=O)NCC(=O)N[C@@H](CC(=O)O)C(=O)N[C@@H]([C@@H](C)O)C(=O)N[C@@H](Cc2ccccc2)C(=O)N[C@@H](CCCNC(=N)N)C(=O)N1)C(=O)O [Cyclic peptide 75, KKKA-(Hcy)-TPRGDTFR(Dab(acetyl))A] (H-KKKA[hCys]TPRGDTFR[Dab]A-OH; linker 5-14 via X2) |  |  | < 50 nM | A (The residual rate of the cyclic peptide is 70% or more.)
6 | C[C@H](NC(=O)[C@@H]1CCNC(=O)CSCC[C@H](NC(=O)CNC(=O)[C@H](CCCCN)NC(=O)[C@H](CCCCN)NC(=O)[C@@H](N)CCCCN)C(=O)N2CCC[C@H]2C(=O)N[C@@H](CCCNC(=N)N)C(=O)NCC(=O)N[C@@H](CC(=O)O)C(=O)N[C@@H](CC(N)=O)C(=O)N[C@@H](Cc2ccccc2)C(=O)N[C@@H](CCCNC(=N)N)C(=O)N1)C(=O)O [Cyclic peptide 8, KKKG-(Hcy)-PRGDNFR(Dab(acetyl))A] (H-KKKG[hCys]PRGDNFR[Dab]A-OH; linker 5-13 via X2) |  |  | 50 to 100 nM | A (The residual rate of the cyclic peptide is 70% or more.)
7 | CC[C@H](C)[C@@H]1NC(=O)[C@@H](NC(=O)[C@H](CCCCN)NC(=O)[C@H](CCCCN)NC(=O)[C@@H](N)CCCCN)CCSCC(=O)NCC[C@@H](C(=O)N[C@@H](C)C(=O)O)NC(=O)[C@H](CCCNC(=N)N)NC(=O)[C@H](Cc2ccccc2)NC(=O)[C@H]([C@@H](C)O)NC(=O)[C@H](CC(=O)O)NC(=O)CNC(=O)[C@H](CCCNC(=N)N)NC(=O)[C@@H]2CCCN2C1=O [Cyclic peptide 57, KKK-(Hcy)-IPRGDTFR(Dab(acetyl))A] (H-KKK[hCys]IPRGDTFR[Dab]A-OH; linker 4-13 via X2) |  |  | < 50 nM | A (The residual rate of the cyclic peptide is 70% or more.)
8 | CC[C@H](C)[C@@H]1NC(=O)[C@@H](NC(=O)CNC(=O)[C@H](CCCCN)NC(=O)[C@H](CCCCN)NC(=O)[C@@H](N)CCCCN)C(C)(C)SCC(=O)NC[C@@H](C(=O)N[C@@H](C)C(=O)O)NC(=O)[C@H](CCCNC(=N)N)NC(=O)[C@H](Cc2ccccc2)NC(=O)[C@H]([C@@H](C)O)NC(=O)[C@H](CC(=O)O)NC(=O)CNC(=O)[C@H](CCCNC(=N)N)NC(=O)[C@@H]2CCCN2C1=O [Cyclic peptide 128, KKKG-(Pen)-IPRGDTFR(Dap(acetyl))A] (H-KKKG[Pen]IPRGDTFR[Dap]A-OH; linker 5-14 via X2) | < 50 nM | B (The residual rate of the cyclic peptide is 50% or more and less than 70%.) |  | 
9 | CC[C@H](C)[C@@H]1NC(=O)[C@@H](NC(=O)[C@H](C)NC(=O)[C@H](CCCCN)NC(=O)[C@H](CCCCN)NC(=O)[C@@H](N)CCCCN)CCNC(=O)CSCC[C@@H](C(=O)N[C@@H](C)C(=O)O)NC(=O)[C@H](C)NC(=O)[C@H](Cc2ccccc2)NC(=O)[C@H](CO)NC(=O)[C@H](CC(=O)O)NC(=O)CNC(=O)[C@H](CCCNC(=N)N)NC(=O)[C@@H]2CCCN2C1=O [Cyclic peptide 124, KKKA(Dab(acetyl))IPRGDSFA-(Hcy)-A] (H-KKKA[Dab]IPRGDSFA[hCys]A-OH; linker 5-14 via X1) | 50 to 100 nM | A (The residual rate of the cyclic peptide is 70% or more.) |  | 
10 | CC[C@H](C)[C@@H]1NC(=O)[C@@H](NC(=O)CNC(=O)[C@H](CCCCN)NC(=O)[C@H](CCCCN)NC(=O)[C@@H](N)CCCCN)CNC(=O)CSC(C)(C)[C@@H](C(=O)N[C@@H](C)C(=O)O)NC(=O)[C@H](CCCNC(=N)N)NC(=O)[C@H](Cc2ccccc2)NC(=O)[C@H]([C@@H](C)O)NC(=O)[C@H](CC(=O)O)NC(=O)CNC(=O)[C@H](CCCNC(=N)N)NC(=O)[C@@H]2CCCN2C1=O [Cyclic peptide 132, KKKG(Dap(acetyl))IPRGDTFR-(Pen)-A] (H-KKKG[Dap]IPRGDTFR[Pen]A-OH; linker 5-14 via X1) | < 50 nM | A (The residual rate of the cyclic peptide is 70% or more.) |  | 
11 | CC(C)[C@@H]1NC(=O)[C@@H](NC(=O)[C@H](CCCCN)NC(=O)[C@H](CCCCN)NC(=O)[C@@H](N)CCCCN)CCNC(=O)CSC[C@@H](C(=O)O)NC(=O)[C@H](Cc2ccccc2)NC(=O)[C@H](CC(N)=O)NC(=O)[C@H](CC(=O)O)NC(=O)CNC(=O)[C@H](CCCNC(=N)N)NC(=O)[C@@H]2CCCN2C1=O [Cyclic peptide 143, KKK(Dab(acetyl))VPRGDNF(C)] (H-KKK[Dab]VPRGDNFC-OH; linker 4-12 via X1) | < 50 nM | C (The residual rate of the cyclic peptide is 30% or more and less than 50%.) |  | 
12 | CC(C)[C@@H]1NC(=O)[C@@H](NC(=O)[C@H](C)NC(=O)[C@H](CCCCN)NC(=O)[C@H](CCCCN)NC(=O)[C@@H](N)CCCCN)CCSCC(=O)NCC[C@@H](C(=O)NCC(=O)O)NC(=O)[C@H](C)NC(=O)[C@H](Cc2ccccc2)NC(=O)[C@H](CO)NC(=O)[C@H](CC(=O)O)NC(=O)CNC(=O)[C@H](CCCNC(=N)N)NC(=O)[C@@H]2CCCN2C1=O [Cyclic peptide 97, KKKA-(Hcy)-VPRGDSFA(Dab(acetyl))G] (H-KKKA[hCys]VPRGDSFA[Dab]G-OH; linker 5-14 via X2) |  |  | < 50 nM | A (The residual rate of the cyclic peptide is 70% or more.)
13 | CC[C@H](C)[C@@H]1NC(=O)[C@@H](NC(=O)[C@H](CCCCN)NC(=O)[C@H](CCCCN)NC(=O)[C@@H](N)CCCCN)CCSCC(=O)NCC[C@@H](C(=O)O)NC(=O)[C@H](Cc2ccccc2)NC(=O)[C@H](CC(N)=O)NC(=O)[C@H](CC(=O)O)NC(=O)CNC(=O)[C@H](CCCNC(=N)N)NC(=O)[C@@H]2CCCN2C1=O [Cyclic peptide 13, KKK-(Hcy)-IPRGDNF(Dab(acetyl))] (H-KKK[hCys]IPRGDNF[Dab]-OH; linker 4-12 via X2) |  |  | < 50 nM | A (The residual rate of the cyclic peptide is 70% or more.)
